Laboratory results from the supplement of paper PMC9663587.

Tests used:
Neratinib/HKI272 = compound: CCOc1cc2ncc(C#N)c(Nc3ccc(OCc4ccccn4)c(Cl)c3)c2cc1NC(=O)/C=C/CN(C)C [Neratinib/HKI272]; test: increase in dead-cell fraction, 72 h; higher = more death;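 note: breast cancer cell lines in 384-well plates, stained with Hoechst plus LIVE/DEAD far red dye and imaged, cells above an LDR intensity threshold counted dead, Hoechst-negative corpses included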
[1] = compound: CC(=O)c1c(C)c2cnc(Nc3ccc(N4CCNCC4)cn3)nc2n(C2CCCC2)c1=O; test: as above
[2] = compound: CCN1CCN(Cc2ccc(Nc3ncc(F)c(-c4cc(F)c5nc(C)n(C(C)C)c5c4)n3)nc2)CC1; test: as above
Flavopiridol = compound: CN1CC[C@H](c2c(O)cc(O)c3c(=O)cc(-c4ccccc4Cl)oc23)[C@H](O)C1 [Flavopiridol]; test: as above
LEE011/Ribociclib = compound: CN(C)C(=O)c1cc2cnc(Nc3ccc(N4CCNCC4)cn3)nc2n1C1CCCC1 [LEE011/Ribociclib]; test: as above
BSJ-03-123 = compound: CC(=O)c1c(C)c2cnc(Nc3ccc(N4CCN(CCOCCOCCOCCNC(=O)COc5cccc6c5C(=O)N(C5CCC(=O)NC5=O)C6=O)CC4)cn3)nc2n(C2CCCC2)c1=O [BSJ-03-123]; test: as above
[3] = compound: CCc1cnn2c(NCc3ccc[n+]([O-])c3)cc(N3CCCC[C@H]3CCO)nc12; test: as above
THZ1 = compound: CN(C)C/C=C/C(=O)Nc1ccc(C(=O)Nc2cccc(Nc3ncc(Cl)c(-c4c[nH]c5ccccc45)n3)c2)cc1 [THZ1]; test: as above
[4] = compound: CC(=O)Nc1cccc(-n2c(=O)n(C3CC3)c(=O)c3c(Nc4ccc(I)cc4F)n(C)c(=O)c(C)c32)c1
[5] = compound: CCC1=CN=CN=C1N2CCN(CC2)CC3=NC4=C(N3)C=C(C=C4)C(F)(F)F
BSJ-01-175 = compound: CN(C)C/C=C/C(=O)Nc1ccc(O[C@@H]2CCC[C@@H](Nc3ncc(Cl)c(-c4c[nH]c5ccccc45)n3)C2)cc1 [BSJ-01-175]
[6] = compound: CCN1CCN(Cc2ccc(Nc3ncc(F)c(-c4cc(F)c5nc(C)n(C(C)C)c5c4)n3)nc2)CC1
[7] = compound: COc1ccc2c(c1)[C@]1(C[C@H]1c1ccc3c(/C=C/c4ccc(CN5C[C@@H](C)O[C@@H](C)C5)cc4)n[nH]c3c1)C(=O)N2
AZD2014 = compound: CNC(=O)c1cccc(-c2ccc3c(N4CCOC[C@@H]4C)nc(N4CCOC[C@@H]4C)nc3n2)c1 [AZD2014]
AZD7762 = compound: NC(=O)Nc1cc(-c2cccc(F)c2)sc1C(=O)N[C@H]1CCCNC1 [AZD7762]
Ipatasertib/GDC0068 = compound: CC(C)NC[C@@H](C(=O)N1CCN(c2ncnc3c2[C@H](C)C[C@H]3O)CC1)c1ccc(Cl)cc1 [Ipatasertib/GDC0068]
Tivantinib/ARQ197 = compound: O=C1NC(=O)[C@@H](c2cn3c4c(cccc24)CCC3)[C@@H]1c1c[nH]c2ccccc12 [Tivantinib/ARQ197]
Vorinostat = compound: O=C(CCCCCCC(=O)Nc1ccccc1)NO [Vorinostat]
AZD6738 = compound: C[C@@H]1COCCN1c1cc(C2([S@](C)(=N)=O)CC2)nc(-c2cc[nH]c3nccc2-3)n1 [AZD6738]
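Throughout, for GR50, 72 h: breast cancer and non-malignant breast epithelial cell lines, Deep Dye Drop or Dye Drop imaging, nine half-log doses, GR normalized to time-zero plates and DMSO-only controls.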

## SUM190PT
Neratinib/HKI272; 0.0003162 µM
  increase in dead-cell fraction: -0.0031
Neratinib/HKI272; 0.001 µM
  increase in dead-cell fraction: -0.0024
Neratinib/HKI272; 0.003162 µM
  increase in dead-cell fraction: -0.0097
Neratinib/HKI272; 0.01 µM
  increase in dead-cell fraction: 0.0037
Neratinib/HKI272; 0.03162 µM
  increase in dead-cell fraction: -0.0082
Neratinib/HKI272; 0.1 µM
  increase in dead-cell fraction: 0.0008
Neratinib/HKI272; 0.3162 µM
  increase in dead-cell fraction: 0.0036
Neratinib/HKI272; 1 µM
  increase in dead-cell fraction: 0.0415
Neratinib/HKI272; 3.162 µM
  increase in dead-cell fraction: 0.0395
[1]; 0.0003162 µM
  increase in dead-cell fraction: -0.0078
[1]; 0.001 µM
  increase in dead-cell fraction: -0.0072
[1]; 0.003162 µM
  increase in dead-cell fraction: -0.0095
[1]; 0.01 µM
  increase in dead-cell fraction: 0.0012
[1]; 0.03162 µM
  increase in dead-cell fraction: -0.0013
[1]; 0.1 µM
  increase in dead-cell fraction: 0.0119
[1]; 0.3162 µM
  increase in dead-cell fraction: 0.0131
[1]; 1 µM
  increase in dead-cell fraction: 0.0095
[1]; 3.162 µM
  increase in dead-cell fraction: 0.0058
[2]; 0.001 µM
  increase in dead-cell fraction: 0.001
[2]; 0.003162 µM
  increase in dead-cell fraction: 0.0059
[2]; 0.01 µM
  increase in dead-cell fraction: 0.0009
[2]; 0.03162 µM
  increase in dead-cell fraction: 0.0041
[2]; 0.1 µM
  increase in dead-cell fraction: 0.0078
[2]; 0.3162 µM
  increase in dead-cell fraction: 0.0015
[2]; 1 µM
  increase in dead-cell fraction: -0.0004
[2]; 3.162 µM
  increase in dead-cell fraction: 0.0076
[2]; 10 µM
  increase in dead-cell fraction: 0.32
Flavopiridol; 0.0001 µM
  increase in dead-cell fraction: -0.0004
Flavopiridol; 0.0003162 µM
  increase in dead-cell fraction: -0.0016
Flavopiridol; 0.001 µM
  increase in dead-cell fraction: -0.0005
Flavopiridol; 0.003162 µM
  increase in dead-cell fraction: -0.0011
Flavopiridol; 0.01 µM
  increase in dead-cell fraction: 0.0056
Flavopiridol; 0.03162 µM
  increase in dead-cell fraction: 0.0019
Flavopiridol; 0.1 µM
  increase in dead-cell fraction: 0.0046
Flavopiridol; 0.3162 µM
  increase in dead-cell fraction: 0.0223
Flavopiridol; 1 µM
  increase in dead-cell fraction: 0.082
LEE011/Ribociclib; 0.001 µM
  increase in dead-cell fraction: 0.0052
LEE011/Ribociclib; 0.003162 µM
  increase in dead-cell fraction: 0.0077
LEE011/Ribociclib; 0.01 µM
  increase in dead-cell fraction: 0.0145
LEE011/Ribociclib; 0.03162 µM
  increase in dead-cell fraction: 0.0159
LEE011/Ribociclib; 0.1 µM
  increase in dead-cell fraction: 0.0213
LEE011/Ribociclib; 0.3162 µM
  increase in dead-cell fraction: 0.0196
LEE011/Ribociclib; 1 µM
  increase in dead-cell fraction: 0.0239
LEE011/Ribociclib; 3.162 µM
  increase in dead-cell fraction: 0.0464
LEE011/Ribociclib; 10 µM
  increase in dead-cell fraction: 0.006
BSJ-03-123; 0.001 µM
  increase in dead-cell fraction: 0.0016
BSJ-03-123; 0.003162 µM
  increase in dead-cell fraction: -0.0004
BSJ-03-123; 0.01 µM
  increase in dead-cell fraction: 0.0082
BSJ-03-123; 0.03162 µM
  increase in dead-cell fraction: 0.018
BSJ-03-123; 0.1 µM
  increase in dead-cell fraction: 0.0114
BSJ-03-123; 0.3162 µM
  increase in dead-cell fraction: 0.0142
BSJ-03-123; 1 µM
  increase in dead-cell fraction: 0.0139
BSJ-03-123; 3.162 µM
  increase in dead-cell fraction: 0.0169
BSJ-03-123; 10 µM
  increase in dead-cell fraction: 0.243
[3]; 0.0001 µM
  increase in dead-cell fraction: 0.0034
[3]; 0.0003162 µM
  increase in dead-cell fraction: 0.0047
[3]; 0.001 µM
  increase in dead-cell fraction: -0.0024
[3]; 0.003162 µM
  increase in dead-cell fraction: -0.0088
[3]; 0.01 µM
  increase in dead-cell fraction: -0.0098
[3]; 0.03162 µM
  increase in dead-cell fraction: 0.201
[3]; 0.1 µM
  increase in dead-cell fraction: 0.449
[3]; 0.3162 µM
  increase in dead-cell fraction: 0.477
[3]; 1 µM
  increase in dead-cell fraction: 0.49
THZ1; 0.0001 µM
  increase in dead-cell fraction: -0.0051
THZ1; 0.0003162 µM
  increase in dead-cell fraction: -0.0051
THZ1; 0.001 µM
  increase in dead-cell fraction: -0.003
THZ1; 0.003162 µM
  increase in dead-cell fraction: 0.0428
THZ1; 0.01 µM
  increase in dead-cell fraction: 0.193
THZ1; 0.03162 µM
  increase in dead-cell fraction: 0.338
THZ1; 0.1 µM
  increase in dead-cell fraction: 0.269
THZ1; 0.3162 µM
  increase in dead-cell fraction: 0.106
THZ1; 1 µM
  increase in dead-cell fraction: 0.13
[4]
  GR50, 72 h: > 1 µM
[5]
  GR50, 72 h: 9.17 µM
BSJ-01-175
  GR50, 72 h: 0.00573 µM
[6]
  GR50, 72 h: 0.0206 µM
[7]
  GR50, 72 h: 0.00062 µM
AZD2014
  GR50, 72 h: 0.00932 µM
AZD7762
  GR50, 72 h: 0.0612 µM
Ipatasertib/GDC0068
  GR50, 72 h: > 10 µM
Tivantinib/ARQ197
  GR50, 72 h: 0.0433 µM
Vorinostat
  GR50, 72 h: 0.402 µM
AZD6738
  GR50, 72 h: 4.09 µM
